From ChEMBL document CHEMBL5338775, “Discovery of a Novel Class of PROTACs as Potent and Selective Estrogen Receptor α Degraders to Overcome Endocrine-Resistant Breast Cancer In Vitro and In Vivo” (J Med Chem, 2023)
The source made the active and inactive calls. The rule behind the calls is not given here.

Key:
Estrogen receptor beta [1] = molecular target: T1, Estrogen receptor beta (Homo sapiens, UniProt Q92731); assay: Binding affinity to ERbeta (unknown origin) assessed as relative binding affinity incubated for 2 hrs by fluorescence polarization assay relative to estradiol
[2] = Selectivity ratio of relative binding affinity for ERalpha (unknown origin) to relative binding affinity to ERbeta (unknown origin)
[3] = Selectivity index, ratio of Ki for ERalpha (unknown origin) to Ki for ERbeta (unknown origin)
[4] = molecular target: T2, von Hippel-Lindau disease tumor suppressor/Estrogen receptor (Homo sapiens) (UniProt P03372+P40337); assay: PROTAC activity at VHL/wild type ERalpha in ER-positive human MCF7 cells assessed as induction of ERalpha degradation at 1 uM incubated for 12 hrs by Western blot analysis; assay type: cell-based
[5] = molecular target: T2, von Hippel-Lindau disease tumor suppressor/Estrogen receptor (Homo sapiens); assay: PROTAC activity at VHL/wild type ERalpha in ER-positive human T47D cells assessed as induction of ERalpha degradation at 2 uM incubated for 12 hrs by Western blot analysis; assay type: cell-based
[6] = molecular target: T2, von Hippel-Lindau disease tumor suppressor/Estrogen receptor (Homo sapiens); assay: PROTAC activity at VHL/ERalpha in ER-positive human tamoxifen-resistant LCC2 cells assessed as induction of ERalpha degradation at 2 uM incubated for 12 hrs by Western blot analysis; assay type: cell-based; details: tamoxifen-resistant LCC2 cell
[7] = molecular target: T2, von Hippel-Lindau disease tumor suppressor/Estrogen receptor (Homo sapiens); assay: PROTAC activity at VHL/ERalpha in ER-positive human MCF7 cells assessed as induction of ERalpha degradation at 0.01 to 10 uM incubated for 12 hrs by Western blot analysis; assay type: cell-based; details: dose 0.01-10 µM
[8] = molecular target: T2, von Hippel-Lindau disease tumor suppressor/Estrogen receptor (Homo sapiens); assay: PROTAC activity at VHL/ERalpha in ER-positive human MCF7 cells assessed as induction of ERalpha degradation at 1 uM incubated for 12 hrs in presence of N-ethyl-5,6-bis(4-hydroxyphenyl)-N-(4-methoxyphenyl)-7-oxabicyclo[2.2.1]hept-5-ene-2-sulfonamide by Western blot analysis; assay type: cell-based
[9] = molecular target: T2, von Hippel-Lindau disease tumor suppressor/Estrogen receptor (Homo sapiens); assay: PROTAC activity at VHL/ERalpha in ER-positive human MCF7 cells assessed as induction of ERalpha degradation at 1 uM incubated for 12 hrs in presence of (2S,4R)-1-[(2S)-2-amino-3,3-dimethylbutanoyl]-4-hydroxy-N-[(1S)-1-[4-(4-methyl-1,3-thiazol-5-yl)phenyl]ethyl]pyrrolidine-2-carboxamide by Western blot analysis; assay type: cell-based
[10] = molecular target: T2, von Hippel-Lindau disease tumor suppressor/Estrogen receptor (Homo sapiens); assay: PROTAC activity at VHL/ERalpha in ER-positive human MCF7 cells assessed as induction of ERalpha degradation at 1 uM incubated for 12 hrs in presence of proteasome inhibitor, MG132 by Western blot analysis; assay type: cell-based
[11] = molecular target: von Hippel-Lindau disease tumor suppressor/Estrogen receptor beta (Homo sapiens) (UniProt Q92731+P40337); assay: PROTAC activity at VHL/ERbeta in human NCI-H1975 cells assessed as induction of ERbeta degradation at 1 to 10 uM incubated for 12 hrs by Western blot analysis; assay type: cell-based; details: dose 1-10 µM
MCF7 [12] = assay: Induction of apoptosis in human MCF7 cells at 1 to 10 uM incubated for 24 hrs by Annexin V-FITC/PI staining based analysis; assay type: functional, cell-based; details: dose 1-10 µM
MCF7 [13] = assay: Induction of cell cycle arrest in human MCF7 cells at 1 to 10 uM incubated for 24 hrs; assay type: functional, cell-based; details: dose 1-10 µM
MCF7 [14] = assay: Antitumor activity against human tamoxifen-sensitive MCF7 cells xenografted in BALB/c nude mouse assessed as inhibition of tumor growth at 1 to 10 micromol/kg, ip administered once every 2 days and measured every 2 days; assay type: functional, organism-based; details: dose 1-10 µmol/kg
[15] = Toxicity in BALB/c nude mouse xenografted with human tamoxifen-sensitive MCF7 cells assessed as reduction in body weight at 1 to 10 micromol/kg, ip administered once every 2 days and measured every 2 days; assay type: organism-based; details: in vivo, 48 h, dose 1-10 µmol/kg
[16] = Toxicity in BALB/c nude mouse xenografted with human tamoxifen-sensitive MCF7 cells assessed as mortality at 1 to 10 micromol/kg, ip administered once every 2 days and measured every 2 days; assay type: organism-based; details: in vivo, 48 h, dose 1-10 µmol/kg
[17] = Toxicity in BALB/c nude mouse xenografted with human tamoxifen-sensitive MCF7 cells assessed as pathological changes in heart at 1 to 10 micromol/kg, ip administered once every 2 days by H and E staining based assay; assay type: organism-based; details: in vivo, 48 h, dose 1-10 µmol/kg
[18] = Toxicity in BALB/c nude mouse xenografted with human tamoxifen-sensitive MCF7 cells assessed as pathological changes in liver at 1 to 10 micromol/kg, ip administered once every 2 days by H and E staining based assay; assay type: organism-based; details: in vivo, 48 h, dose 1-10 µmol/kg
[19] = Toxicity in BALB/c nude mouse xenografted with human tamoxifen-sensitive MCF7 cells assessed as pathological changes in kidney at 1 to 10 micromol/kg, ip administered once every 2 days by H and E staining based assay; assay type: organism-based; details: in vivo, 48 h, dose 1-10 µmol/kg
Mus musculus [20] = assay: In vivo protac activity at VHL/ERalpha in BALB/c nude mouse xenografted with human tamoxifen-sensitive MCF7 cells assessed as reduction in ERalpha protein levels in tumor at 1 to 10 micromol/kg, ip administered once every 2 days by Western blot analysis; assay type: functional, organism-based; details: dose 1-10 µmol/kg
MCF7 [21] = assay: Antitumor activity against human tamoxifen-sensitive MCF7 cells xenografted in BALB/c nude mouse assessed as increase in tumor necrosis area at 5 micromol/kg, ip administered once every 2 days by […] staining based analysis; assay type: functional, organism-based; details: dose 5.0 µmol/kg
MCF7 [22] = assay: Antitumor activity against human tamoxifen-sensitive MCF7 cells xenografted in BALB/c nude mouse assessed as reduction in cell proliferation at 5 micromol/kg, ip administered once every 2 days by ki67 staining based analysis; assay type: functional, organism-based; details: dose 5.0 µmol/kg
[23] = test system: tamoxifen-resistant LCC2 cell; assay: Antitumor activity against human ER-positive tamoxifen-resistant LCC2 cells xenografted in BALB/c nude mouse assessed as reduction in tumor growth at 5 micromol/kg, ip administered once every 2 days and measured every 2 days; assay type: functional, organism-based; details: dose 5.0 µmol/kg
T47D [24] = assay: Inhibition of nascent GREB1 RNA synthesis in human T47D cells incubated for 6 hrs by 4-thiouridine incorporation assay; assay type: functional, cell-based
T47D [25] = assay: Inhibition of nascent IGFBP4 RNA synthesis in human T47D cells incubated for 6 hrs by 4-thiouridine incorporation assay; assay type: functional, cell-based
[26] = molecular target: T3, Estrogen receptor (Homo sapiens) (UniProt P03372); assay: Inhibition of ERalpha binding to DNA in human T47D cells assessed as reduction in protein occupancy incubated for 6 hrs by ChIP-seq analysis; assay type: cell-based
T3 sequence (whole entry): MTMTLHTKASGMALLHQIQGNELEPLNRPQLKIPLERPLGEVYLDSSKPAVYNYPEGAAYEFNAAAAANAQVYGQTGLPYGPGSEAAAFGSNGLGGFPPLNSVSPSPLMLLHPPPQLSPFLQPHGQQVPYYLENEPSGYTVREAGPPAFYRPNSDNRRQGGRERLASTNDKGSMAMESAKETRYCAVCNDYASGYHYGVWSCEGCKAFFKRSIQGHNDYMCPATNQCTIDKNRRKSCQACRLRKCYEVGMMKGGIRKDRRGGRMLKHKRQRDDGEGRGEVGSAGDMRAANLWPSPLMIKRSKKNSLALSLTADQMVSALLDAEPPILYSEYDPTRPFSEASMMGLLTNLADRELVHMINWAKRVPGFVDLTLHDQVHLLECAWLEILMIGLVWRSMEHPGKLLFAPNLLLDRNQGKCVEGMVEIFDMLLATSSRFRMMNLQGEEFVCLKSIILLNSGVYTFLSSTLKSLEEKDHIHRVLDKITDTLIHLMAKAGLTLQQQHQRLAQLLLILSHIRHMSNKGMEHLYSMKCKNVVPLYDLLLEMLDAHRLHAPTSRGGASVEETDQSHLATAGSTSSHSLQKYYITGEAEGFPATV

T47D [27] = assay: Inhibition of gene transcription in human T47D cells assessed as reduction in Pol II occupancy at GREB1 promoter region by ChIP-seq analysis; assay type: functional, cell-based
T47D [28] = assay: Inhibition of gene transcription in human T47D cells assessed as reduction in Pol II occupancy at IGFBP4 promoter region by ChIP-seq analysis; assay type: functional, cell-based
T47D [29] = assay: Inhibition of gene transcription in human T47D cells assessed as reduction in H3K27ac levels in GREB1 promoter region by ChIP-seq analysis; assay type: functional, cell-based
T47D [30] = assay: Inhibition of gene transcription in human T47D cells assessed as reduction in H3K27ac levels in IGFBP4 promoter region by ChIP-seq analysis; assay type: functional, cell-based
Estrogen receptor = molecular target: T4, Estrogen receptor (Homo sapiens, UniProt P03372)
T4 sequence (P03372 whole entry): T3 sequence (whole entry)

Estrogen receptor beta [31] = molecular target: T1, Estrogen receptor beta
MCF7 [32] = assay: cells; details: Homo sapiens, MCF7, 72 h
cells = details: Homo sapiens, Tamoxifen-resistant LCC2 cell, 72 h
T47D [33] = assay: cells; details: Homo sapiens, 72 h
T47D [34] = assay: cells; details: Homo sapiens, 72 h; remark: listed apart in the source
T47D [35] = assay: cells; details: Homo sapiens, 72 h; remark: listed apart in the source
MDA-MB-231 = assay: cells; details: Homo sapiens, MDA-MB-231, 72 h
in vitro = details: human, MCF-10A cells
Mus musculus [36] = assay: In vivo protac activity at VHL/ERalpha in BALB/c nude mouse xenografted with human ER-positive tamoxifen-resistant LCC2 cells assessed as reduction in ERalpha protein levels in tumor at 5 micromol/kg, ip administered once every 2 days by Western blot analysis; assay type: functional, organism-based; details: dose 5.0 µmol/kg

T2 sequence (P40337 whole entry, looked up, one chain of several): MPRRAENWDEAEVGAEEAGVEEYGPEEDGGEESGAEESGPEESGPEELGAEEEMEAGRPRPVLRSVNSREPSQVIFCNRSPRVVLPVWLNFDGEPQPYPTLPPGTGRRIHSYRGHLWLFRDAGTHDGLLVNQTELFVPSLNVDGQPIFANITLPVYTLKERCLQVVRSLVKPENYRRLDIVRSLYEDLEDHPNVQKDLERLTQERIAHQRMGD
T1 sequence (Q92731 whole entry): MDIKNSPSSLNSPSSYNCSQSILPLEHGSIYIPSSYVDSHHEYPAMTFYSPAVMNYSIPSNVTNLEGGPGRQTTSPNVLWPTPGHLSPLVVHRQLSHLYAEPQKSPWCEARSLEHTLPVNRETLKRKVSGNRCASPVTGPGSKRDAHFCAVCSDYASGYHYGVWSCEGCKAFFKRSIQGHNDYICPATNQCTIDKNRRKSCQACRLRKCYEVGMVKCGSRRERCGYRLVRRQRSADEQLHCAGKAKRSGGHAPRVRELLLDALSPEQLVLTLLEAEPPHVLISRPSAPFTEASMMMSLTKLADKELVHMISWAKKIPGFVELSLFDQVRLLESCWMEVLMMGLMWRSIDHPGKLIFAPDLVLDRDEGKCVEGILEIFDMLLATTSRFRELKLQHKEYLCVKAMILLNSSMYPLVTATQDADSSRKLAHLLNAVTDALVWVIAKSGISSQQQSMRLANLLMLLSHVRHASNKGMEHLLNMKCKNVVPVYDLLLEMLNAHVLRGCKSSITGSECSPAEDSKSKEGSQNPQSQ
Chain of von Hippel-Lindau disease tumor suppressor/Estrogen receptor beta (Homo sapiens) (P40337 whole entry, looked up): as the sequence (P40337 whole entry, looked up, one chain of several) above
Chain of von Hippel-Lindau disease tumor suppressor/Estrogen receptor beta (Homo sapiens) (Q92731 whole entry, looked up): as the sequence (Q92731 whole entry) above

SMILES	RBA (Estrogen receptor beta [1]) [%]	Selectivity ratio [2]	Ratio Ki [3]	Activity [4]	Activity [5]	Activity [6]	Activity [7]	Activity [11]	Activity (MCF7 [12])	Activity (MCF7 [13])	Activity [23]	inhibition (T47D [24])	inhibition (T47D [25])	inhibition [26]	inhibition (T47D [27])	inhibition (T47D [28])	inhibition (T47D [29])	inhibition (T47D [30])	Ki (Estrogen receptor) [µM]	Ki (Estrogen receptor beta [31]) [µM]	also measured
CCN(c1ccc(OCCCCCC(=O)N[C@H](C(=O)N2C[C@H](O)C[C@H]2C(=O)N[C@@H](C)c2ccc(-c3scnc3C)cc2)C(C)(C)C)cc1)S(=O)(=O)C1CC2OC1C(c1ccc(O)cc1)=C2c1ccc(O)cc1 (some centres not stated)	0.06	1.33	5.16	Active	Active	Active	Active	inactive	Active	Active	Active	Active	Active	Active	Active	Active	Active	Active	2.54	13.1	Activity [8]: inactive; Activity [9]: inactive; Activity [10]: inactive; inhibition (MCF7 [14]): Active; Activity [15]: Non-Toxic; Activity [16]: Non-Toxic; Activity [17]: Non-Toxic; Activity [18]: Non-Toxic; Activity [19]: Non-Toxic; Activity (Mus musculus [20]): Active; Activity (MCF7 [21]): Active; Activity (MCF7 [22]): Active; IC50 (MCF7 [32]): 0.31 µM; IC50 (cells): 12.3 µM; IC50 (T47D [33]): 7.51 µM; IC50 (T47D [34]): 8.12 µM; IC50 (T47D [35]): 9.52 µM; IC50 (MDA-MB-231): > 100 µM; IC50 at 72 h (in vitro): > 100 µM
Cc1ncsc1-c1ccc([C@H](C)NC(=O)[C@@H]2C[C@@H](O)CN2C(=O)[C@@H](NC(=O)CCCCCOc2ccc(N(CC(F)(F)F)S(=O)(=O)C3CC4OC3C(c3ccc(O)cc3)=C4c3ccc(O)cc3)cc2)C(C)(C)C)cc1 (some centres not stated)	0.03	1.33	5.16	Active	Active	Active	Active	inactive	Active	Active	Active	Active	Active	Active	Active	Active	Active	Active	5.08	26.2	Activity (Mus musculus [36]): Active; IC50 (MCF7 [32]): 0.05 µM; IC50 (cells): 4.17 µM; IC50 (T47D [33]): 1.35 µM; IC50 (T47D [34]): 1.26 µM; IC50 (T47D [35]): 1.51 µM; IC50 (MDA-MB-231): > 100 µM; IC50 at 72 h (in vitro): 7.69 µM
